According to US8394952B2 (Vertex Pharmaceuticals Incorporated, priority 2006, dated 2013):

Target: Plk1 (Homo sapiens, UniProt P53350)
Assay: biochemical

Chain of Plk1 (P53350 20-338): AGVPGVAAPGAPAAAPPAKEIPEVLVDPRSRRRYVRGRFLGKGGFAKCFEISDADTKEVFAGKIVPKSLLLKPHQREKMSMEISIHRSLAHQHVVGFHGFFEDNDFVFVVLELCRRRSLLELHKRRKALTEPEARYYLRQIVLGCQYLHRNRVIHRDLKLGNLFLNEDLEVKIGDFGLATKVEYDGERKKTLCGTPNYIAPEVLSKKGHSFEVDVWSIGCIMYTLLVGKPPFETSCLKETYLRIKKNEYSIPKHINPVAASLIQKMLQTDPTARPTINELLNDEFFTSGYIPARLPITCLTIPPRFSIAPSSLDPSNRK

| Ki [nM] | SMILES |
| --- | --- |
| < 10 | COc1cc(C(=O)NC(C)(CO)CO)ccc1Nc1ncc2c(n1)N(C1CCCC1)CC(C)(C)C(=O)N2C [Compound I-136, 4-(9-cyclopentyl-6,7,8,9-tetrahydro-5,7,7-trimethyl-6-oxo-5H-pyrimido[4,5-b][1,4]diazepin-2-ylamino)-N-(1,3-dihydroxy-2-methylpropan-2-yl)-3-methoxybenzamide] |
| < 10 | COc1cc(C(=O)NCc2ccncc2)ccc1Nc1ncc2c(n1)N(C1CCCC1)CC(C)(C)C(=O)N2C [Compound I-212, 4-(9-cyclopentyl-5,7,7-trimethyl-6-oxo-6,7,8,9-tetrahydro-5H-pyrimido[4,5-b][1,4]diazepin-2-ylamino)-3-methoxy-N-(pyridin-4-ylmethyl)benzamide] |
| < 10 | COc1cc(C(=O)N[C@@H]2CCc3ccccc32)ccc1Nc1ncc2c(n1)N(C1CCCC1)CC(C)(C)C(=O)N2C [Compound I-209, (R)-4-(9-cyclopentyl-5,7,7-trimethyl-6-oxo-6,7,8,9-tetrahydro-5H-pyrimido[4,5-b][1,4]diazepin-2-ylamino)-N-(2,3-dihydro-1H-inden-1yl)-3-methoxy-benzamide] |
| < 10 | CNC(=O)c1ccc(Nc2ncc3c(n2)N(C2CCCC2)C[C@@H](C)C(=O)N3C)c(OC)c1 [Compound I-18, 4-((R)-9-cyclopentyl-6,7,8,9-tetrahydro-5,7-dimethyl-6-oxo-5H-pyrimido[4,5-b][1,4]diazepin-2-ylamino)-3-methoxy-N-methylbenzamide] |
| < 10 | COc1cc(C(=O)NC2CCN(CC3CC3)CC2)ccc1Nc1ncc2c(n1)N(C1CCCC1)CC(C)(C)C(=O)N2C [Compound I-59, 4-(9-cyclopentyl-6,7,8,9-tetrahydro-5,7,7-trimethyl-6-oxo-5H-pyrimido[4,5-b][1,4]diazepin-2-ylamino)-N-(1-(cyclopropylmethyl)piperidin-4-yl)-3-methoxybenzamide] |
| < 10 | COc1cc(C(=O)NC(C)(C)CO)ccc1Nc1ncc2c(n1)N(C1CCCC1)CC1(CC1)C(=O)N2C [Compound I-271, 4-(9′-cyclopentyl-5′-methyl-6′-oxo-5′,6′,8′,9′-tetrahydrospiro[cyclopropane-1,7′-pyrimido[4,5-b][1,4]diazepine]-2′-ylamino)-N-(1-hydroxy-2-methylpropan-2-yl)-3-methoxybenzamide] |
| 10 to 100 | COCCNC(=O)c1cccc(Nc2ncc3c(n2)N(C2CCCC2)CC(C)(C)C(=O)N3C)c1 [Compound I-144, 3-(9-Cyclopentyl-6,7,8,9-tetrahydro-5,7,7-trimethyl-6-oxo-5H-pyrimido[4,5-b][1,4]diazepin-2-ylamino)-N-(2-methoxyethyl)benzamide] |
| < 10 | COc1cc(C(=O)Nc2cccnc2)ccc1Nc1ncc2c(n1)N(C1CCCC1)CC(C)(C)C(=O)N2C [Compound I-207, 4-(9-cyclopentyl-5,7,7-trimethyl-6-oxo-6,7,8,9-tetrahydro-5H-pyrimido[4,5-b][1,4]diazepin-2-ylamino)-3-methoxy-N-(pyridin-3-yl)benzamide] |
| < 10 | COc1cc(C(=O)NC2(CO)CC2)ccc1Nc1ncc2c(n1)N(C1CCCC1)CC(C)(C)C(=O)N2C [Compound I-266] |
| 10 to 100 | COc1cc(C(=O)O)ccc1Nc1ncc2c(n1)N(C1CCCC1)CC(C)(C)C(=O)N2C [Compound I-120, 4-(9-cyclopentyl-6,7,8,9-tetrahydro-5,7,7-trimethyl-6-oxo-5H-pyrimido[4,5-b][1,4]diazepin-2-ylamino)-3-methoxybenzoic acid] |
| < 10 | COc1cc(C(=O)Nc2cc(C)ns2)ccc1Nc1ncc2c(n1)N(C1CCCC1)CC(C)(C)C(=O)N2C [Compound I-232, 4-(9-cyclopentyl-5,7,7-trimethyl-6-oxo-6,7,8,9-tetrahydro-5H-pyrimido[4,5-b][1,4]diazepin-2-ylamino)-3-methoxy-N-(3-methylisothiazol-5-yl)benzamide] |
| 10 to 100 | CN1C(=O)C(C)(C)CN(C2CCCC2)c2nc(Nc3cccc(N)c3)ncc21 [Compound I-116, 2-(3-aminophenylamino)-9-cyclopentyl-8,9-dihydro-5,7,7-trimethyl-5H-pyrimido[4,5-b][1,4]diazepin-6(7H)-one] |
| < 10 | COc1cc(C(=O)N[C@H]2CCOC2)ccc1Nc1ncc2c(n1)N(C1CCCC1)CC1(CC1)C(=O)N2C [Compound I-179, (S)-4-(9′-cyclopentyl-5′-methyl-6′-oxo-5′,6′,8′,9′-tetrahydrospiro[cyclopropane-1,7′-pyrimido[4,5-b][1,4]diazepine]-2′-ylamino)-3-methoxy-N-(tetrahydrofuran-3-yl)benzamide] |
| 10 to 100 | CN1C(=O)C(C)(C)CN(C2CCCC2)c2nc(Nc3cccc(C(=O)NC4CCOCC4)c3)ncc21 [Compound I-141, 3-(9-Cyclopentyl-6,7,8,9-tetrahydro-5,7,7-trimethyl-6-oxo-5H-pyrimido[4,5-b][1,4]diazepin-2-ylamino)-N-(tetrahydro-2H-pyran-4-yl)benzamide] |
| < 10 | COc1cc(C(=O)NC2CCC2)ccc1Nc1ncc2c(n1)N(C1CCCC1)CC(C)(C)C(=O)N2C [Compound I-94, 4-(9-cyclopentyl-6,7,8,9-tetrahydro-5,7,7-trimethyl-6-oxo-5H-pyrimido[4,5-b][1,4]diazepin-2-ylamino)-N-cyclobutyl-3-methoxybenzamide] |
| < 10 | COCC(=O)Nc1ccc(Nc2ncc3c(n2)N(C2CCCC2)CC(C)(C)C(=O)N3C)c(OC)c1 [Compound I-104, N-(4-(9-cyclopentyl-5,7,7-trimethyl-6-oxo-6,7,8,9-tetrahydro-5H-pyrimido[4,5-b][1,4]diazepin-2-ylamino)-3-methoxyphenyl)-2-methoxyacetamide] |
| 10 to 100 | COCC(=O)Nc1cccc(Nc2ncc3c(n2)N(C2CCCC2)CC(C)(C)C(=O)N3C)c1 [Compound I-147, N-(3-(9-Cyclopentyl-6,7,8,9-tetrahydro-5,7,7-trimethyl-6-oxo-5H-pyrimido[4,5-b][1,4]diazepin-2-ylamino)phenyl)-2-methoxyacetamide] |
| < 10 | COc1cc(C(=O)NC2CCN(CC(C)C)CC2)ccc1Nc1ncc2c(n1)N(C1CCCC1)CC(C)(C)C(=O)N2C [Compound I-70] |
| < 10 | COc1cc(C(=O)NCCCO)ccc1Nc1ncc2c(n1)N(C1CCCC1)CC(C)(C)C(=O)N2C [Compound I-241] |
| < 10 | CNC(=O)c1ccc(Nc2ncc3c(n2)N(CC2CC2(F)F)CC(C)(C)C(=O)N3C)c(OC)c1 (stereo not drawn) [Compound I-169, 4-(9-((2,2-difluorocyclopropyl)methyl)-6,7,8,9-tetrahydro-5,7,7-trimethyl-6-oxo-5H-pyrimido[4,5-b][1,4]diazepin-2-ylamino)-3-methoxy-N-methylbenzamide] |
| < 10 | CN1C(=O)C(C)(C)CN(C2CCCC2)c2nc(Nc3ccc(-n4ccnc4)cc3)ncc21 [Compound I-48, 2-(4-(1H-imidazol-1-yl)phenylamino)-9-cyclopentyl-8,9-dihydro-5,7,7-trimethyl-5H-pyrimido[4,5-b][1,4]diazepin-6(7H)-one] |
| 10 to 100 | CNC(=O)c1ccc(Nc2ncc3c(n2)N([C@@H]2CCN(C)C2)CC(C)(C)C(=O)N3C)c(OC)c1 [Compound I-20, 4-(6,7,8,9-tetrahydro-5,7,7-trimethyl-9-((R)-1-methylpyrrolidin-3-yl)-6-oxo-5H-pyrimido[4,5-b][1,4]diazepin-2-ylamino)-3-methoxy-N-methylbenzamide] |
| < 10 | COc1ccc(CNC(=O)c2ccc(Nc3ncc4c(n3)N(C3CCCC3)CC(C)(C)C(=O)N4C)c(OC)c2)cc1 [Compound I-213, 4-(9-cyclopentyl-5,7,7-trimethyl-6-oxo-6,7,8,9-tetrahydro-5H-pyrimido[4,5-b][1,4]diazepin-2-ylamino)-3-methoxy-N-(4-methoxybenzyl)benzamide] |
| 10 to 100 | CN1C(=O)C(C)(C)CN(C2CCCC2)c2nc(Nc3cccc(NC(=O)c4ccccc4)c3)ncc21 [Compound I-154, N-(3-(9-cyclopentyl-6,7,8,9-tetrahydro-5,7,7-trimethyl-6-oxo-5H-pyrimido[4,5-b][1,4]diazepin-2-ylamino)phenyl)benzamide] |
| 10 to 100 | COc1ccccc1Nc1ncc2c(n1)N(C1CCCC1)CCC(=O)N2C [Compound I-188, 9-cyclopentyl-2-(2-methoxyphenylamino)-5-methyl-8,9-dihydro-5H-pyrimido[4,5-b][1,4]diazepin-6(7H)-one] |
| 10 to 100 | COc1cc(C(=O)N(C)C)ccc1Nc1ncc2c(n1)N(C1CCCC1)CC(C)(C)C(=O)N2C [Compound I-215, 4-(9-cyclopentyl-5,7,7-trimethyl-6-oxo-6,7,8,9-tetrahydro-5H-pyrimido[4,5-b][1,4]diazepin-2-ylamino)-3-methoxy-N,N-dimethylbenzamide] |
| < 10 | COc1cc(C(=O)NCC2CCCCC2)ccc1Nc1ncc2c(n1)N(C1CCCC1)CC(C)(C)C(=O)N2C [Compound I-196, N-(cyclohexylmethyl)-4-(9-cyclopentyl-5,7,7-trimethyl-6-oxo-6,7,8,9-tetrahydro-5H-pyrimido[4,5-b][1,4]diazepin-2-ylamino)-3-methoxybenzamide] |
| < 10 | COc1cc(C(=O)NCc2cccnc2)ccc1Nc1ncc2c(n1)N(C1CCCC1)CC(C)(C)C(=O)N2C [Compound I-202, 4-(9-cyclopentyl-5,7,7-trimethyl-6-oxo-6,7,8,9-tetrahydro-5H-pyrimido[4,5-b][1,4]diazepin-2-ylamino)-3-methoxy-N-(pyridin-3-ylmethyl)benzamide] |
| < 10 | COc1cc(C(=O)NC2CCNCC2)ccc1Nc1ncc2c(n1)N(C1CCCC1)CCC(=O)N2C [Compound I-6, 4-(9-cyclopentyl-6,7,8,9-tetrahydro-5-methyl-6-oxo-5H-pyrimido[4,5-b][1,4]diazepin-2-ylamino)-3-methoxy-N-(piperidin-4-yl)benzamide] |

| SMILES | Ki [nM] |
| --- | --- |
| COc1cc(C(=O)NC2CCN(C(=O)OC(C)(C)C)CC2)ccc1Nc1ncc2c(n1)N(C1CCCC1)CCC(=O)N2C [Compound I-5, 4-(9-cyclopentyl-6,7,8,9-tetrahydro-5-methyl-6-oxo-5H-pyrimido[4,5-b][1,4]diazepin-2-ylamino)-3-methoxy-N-[1-(tert-butoxycarbonyl)piperidin-4-yl]benzamide] | < 10 |
